The CheMixHub ionic liquid set

Experiment: xn = mol fraction of the nth substance listed
Details: 288.15 K, 101 kPa

Cc1ncc(C[n+]2csc(CCO)c2C)c(N)n1.Cl.[Cl-] + CCCCCCCCCCCCOS(=O)(=O)[O-].[Na+] + O
Details	electrical conductivity [S/m]
x2 = 0, x1 = 1.8e-07	0.00237
x2 = 0, x1 = 9e-07	0.0045
x2 = 0, x1 = 1.8e-06	0.00578
x2 = 7.35e-06, x1 = 1.8e-07	0.00538
x2 = 7.35e-06, x1 = 9e-07	0.0077
x2 = 7.35e-06, x1 = 1.8e-06	0.00928
x2 = 1.463e-05, x1 = 1.8e-07	0.00837
x2 = 1.463e-05, x1 = 9e-07	0.0109
x2 = 1.463e-05, x1 = 1.8e-06	0.0127
x2 = 2.18e-05, x1 = 1.8e-07	0.0112
x2 = 2.18e-05, x1 = 9e-07	0.0139
x2 = 2.18e-05, x1 = 1.8e-06	0.016
x2 = 2.901e-05, x1 = 1.8e-07	0.0139
x2 = 2.901e-05, x1 = 9e-07	0.0169
x2 = 2.901e-05, x1 = 1.8e-06	0.0192
x2 = 3.604e-05, x1 = 1.8e-07	0.0167
x2 = 3.604e-05, x1 = 9e-07	0.0197
x2 = 3.604e-05, x1 = 1.8e-06	0.0224
x2 = 4.307e-05, x1 = 1.8e-07	0.0194
x2 = 4.307e-05, x1 = 9e-07	0.0225
x2 = 4.307e-05, x1 = 1.8e-06	0.0255
x2 = 4.991e-05, x1 = 1.8e-07	0.0221
x2 = 4.991e-05, x1 = 9e-07	0.0253
x2 = 4.991e-05, x1 = 1.8e-06	0.0285
x2 = 5.676e-05, x1 = 1.8e-07	0.0248
x2 = 5.676e-05, x1 = 9e-07	0.0281
x2 = 5.676e-05, x1 = 1.8e-06	0.0314
x2 = 6.361e-05, x1 = 1.8e-07	0.0274
x2 = 6.361e-05, x1 = 9e-07	0.0307
x2 = 6.361e-05, x1 = 1.8e-06	0.0342
x2 = 7.027e-05, x1 = 1.8e-07	0.0299
x2 = 7.027e-05, x1 = 9e-07	0.0332
x2 = 7.028e-05, x1 = 1.8e-06	0.037
x2 = 7.694e-05, x1 = 1.8e-07	0.0324
x2 = 7.694e-05, x1 = 9e-07	0.0357
x2 = 7.694e-05, x1 = 1.8e-06	0.0397
x2 = 8.361e-05, x1 = 1.8e-07	0.0349
x2 = 8.361e-05, x1 = 9e-07	0.0382
x2 = 8.361e-05, x1 = 1.8e-06	0.0425
x2 = 9.009e-05, x1 = 1.8e-07	0.0374
x2 = 9.009e-05, x1 = 9e-07	0.0407
x2 = 9.009e-05, x1 = 1.8e-06	0.0452
x2 = 9.658e-05, x1 = 1.8e-07	0.0398
x2 = 9.658e-05, x1 = 9e-07	0.0431
x2 = 9.658e-05, x1 = 1.8e-06	0.0478
x2 = 0.0001031, x1 = 1.8e-07	0.0422
x2 = 0.0001031, x1 = 9e-07	0.0456
x2 = 0.0001031, x1 = 1.8e-06	0.0503
x2 = 0.0001094, x1 = 1.8e-07	0.0446
x2 = 0.0001094, x1 = 9e-07	0.048
x2 = 0.0001094, x1 = 1.8e-06	0.0522
x2 = 0.0001157, x1 = 1.8e-07	0.0465
x2 = 0.0001157, x1 = 9e-07	0.0502
x2 = 0.0001157, x1 = 1.8e-06	0.0539
x2 = 0.000122, x1 = 1.8e-07	0.0486
x2 = 0.000122, x1 = 9e-07	0.0523
x2 = 0.000122, x1 = 1.8e-06	0.0555
x2 = 0.0001281, x1 = 1.8e-07	0.0508
x2 = 0.0001281, x1 = 9e-07	0.0541
x2 = 0.0001281, x1 = 1.8e-06	0.0571
x2 = 0.0001342, x1 = 1.8e-07	0.0527
x2 = 0.0001342, x1 = 9e-07	0.0558
x2 = 0.0001342, x1 = 1.8e-06	0.0587
x2 = 0.0001404, x1 = 1.8e-07	0.0545
x2 = 0.0001404, x1 = 9e-07	0.0573
x2 = 0.0001404, x1 = 1.8e-06	0.0601
x2 = 0.0001465, x1 = 1.8e-07	0.0561
x2 = 0.0001465, x1 = 9e-07	0.0587
x2 = 0.0001465, x1 = 1.8e-06	0.0614
x2 = 0.0001524, x1 = 1.8e-07	0.0577
x2 = 0.0001524, x1 = 9e-07	0.0599
x2 = 0.0001524, x1 = 1.8e-06	0.0625
x2 = 0.0001584, x1 = 1.8e-07	0.059
x2 = 0.0001584, x1 = 9e-07	0.0611
x2 = 0.0001584, x1 = 1.8e-06	0.0636
x2 = 0.0001641, x1 = 1.8e-07	0.0602
x2 = 0.0001641, x1 = 9e-07	0.0622
x2 = 0.0001641, x1 = 1.8e-06	0.0647
x2 = 0.0001699, x1 = 1.8e-07	0.0613
x2 = 0.0001699, x1 = 9e-07	0.0633
x2 = 0.0001699, x1 = 1.8e-06	0.0657
x2 = 0.0001757, x1 = 1.8e-07	0.0622
x2 = 0.0001757, x1 = 9e-07	0.0643
x2 = 0.0001757, x1 = 1.8e-06	0.0667
x2 = 0.0001814, x1 = 1.8e-07	0.0632
x2 = 0.0001814, x1 = 9e-07	0.0654
x2 = 0.0001814, x1 = 1.8e-06	0.0677
x2 = 0.000187, x1 = 1.8e-07	0.0641
x2 = 0.000187, x1 = 9e-07	0.0664
x2 = 0.000187, x1 = 1.8e-06	0.0687
x2 = 0.0001928, x1 = 1.8e-07	0.0649
x2 = 0.0001928, x1 = 9e-07	0.0673
x2 = 0.0001928, x1 = 1.8e-06	0.0697
x2 = 0.0001982, x1 = 1.8e-07	0.0658
x2 = 0.0001982, x1 = 9e-07	0.0683
x2 = 0.0001982, x1 = 1.8e-06	0.0707
x2 = 0.0002038, x1 = 1.8e-07	0.0666
x2 = 0.0002038, x1 = 9e-07	0.0692
x2 = 0.0002038, x1 = 1.8e-06	0.0716
x2 = 0.0002092, x1 = 1.8e-07	0.0673
x2 = 0.0002092, x1 = 9e-07	0.0702
x2 = 0.0002092, x1 = 1.8e-06	0.0725
x2 = 0.0002147, x1 = 1.8e-07	0.0681
x2 = 0.0002148, x1 = 9e-07	0.0711
x2 = 0.0002148, x1 = 1.8e-06	0.0734
x2 = 0.00022, x1 = 1.8e-07	0.0689
x2 = 0.00022, x1 = 9e-07	0.072
x2 = 0.00022, x1 = 1.8e-06	0.0743
x2 = 0.0002254, x1 = 1.8e-07	0.0696
x2 = 0.0002254, x1 = 9e-07	0.0729
x2 = 0.0002254, x1 = 1.8e-06	0.0752
x2 = 0.0002306, x1 = 1.8e-07	0.0703
x2 = 0.0002306, x1 = 9e-07	0.0739
x2 = 0.0002306, x1 = 1.8e-06	0.0761
x2 = 0.0002358, x1 = 1.8e-07	0.071
x2 = 0.0002358, x1 = 9e-07	0.0747
x2 = 0.0002358, x1 = 1.8e-06	0.077
x2 = 0.0002411, x1 = 1.8e-07	0.0717
x2 = 0.0002411, x1 = 9e-07	0.0756
x2 = 0.0002411, x1 = 1.8e-06	0.0778
